System: HEK293T cells
Assay: Ribo-seq and TI-seq translation efficiency analysis
Type: cell-based, human
Details: i14G1-10 20 μM, i14G1-12 10 μM; 3 h
Method: FIGS. 4A-L: The effect eIF1-eIF4G1 inhibition by i14G1-10 or i14G1-12 on global translation is linked to start codon stringency. (4A) HEK293T cells were treated with DMSO, i14G1-10 (20 μM), and […] (10 μM) for 3 h and then ribosome foot printing libraries were prepared, sequenced and analyzed as described in the scheme. The presented graphs show meta-gene analysis of the distribution of normalized reads in the coding region (CDS) and 5′UTR of all analyzed genes in DMSO (black), i14G1-10 (blue), and i14G1-12 (red). (4B) Summary of the number of genes whose ribosomal occupancy was affected (fold change, […]) or unaffected in coding regions (CDS) (left) and 5′UTR (right) in i14G1-10 or i14G1-12 samples. […] (4E) Analysis of the nucleotide context of the annotated start codon of i14G1-10 and i14G1-12 differentially translated mRNAs using the STREME motif discovery algorithm. (4F) The translation efficiency of eIF1 in DMSO, i14G1-10 and i14G1-12 samples calculated from the Ribo-seq data. The weak AUG context of eIF1 is shown above. […] (4I) HEK293T cells were transfected with a firefly luciferase reporter gene driven by either by AUG or near cognate start codon, i.e., ACG, CUG, GUG, and UUG. The Renilla luciferase reporter gene was also co-transfected and served as a normalizing control. The near cognate start codon activities in DMSO control and i14G1-10 and i14G1-12 treated cells are presented as a percentage of AUG activity. The data are shown as mean±SEM, n=5. the asterisks denote statistically significant difference compared to DMSO, according to Student's t-tests (one-tailed, paired). *p<0.05; **p<0.01. (4J) Scatter plots showing the translation efficiencies correlations (R2 >0.9) of all analyzed genes between the two independent replicate experiments with DMSO (vehicle control) (top), i14G1-10 (middle), and i14G1-12 (bottom). (4K) Scatter plots showing the translation efficiencies correlations between 5′UTR and CDS (Pearson's r >0.5) of all analyzed genes of two independent replicate experiments with i14G1-10 (left) and i14G1-12 (right).
Ribo-seq and TI-seq. HEK293T cells were grown in 10 cm culture dish until 80% confluence, and treated with DMSO, i14G1-10 ([…]), and i14G1-12 (10 μM). After 3 h, for TI-seq, cells were treated with 2 μg/ml harringtonine (Hrr) for 2 minutes followed by the addition of 100 μg/ml cycloheximide (CHX) for 5 minutes. For Ribo-seq cells were treated with 100 μg/ml cycloheximide (CHX) for 5 minutes. Thereafter, cells were lysed in polysome buffer. For both TI-seq and Ribo-seq, ribosome fractions were isolated using sucrose density centrifugation followed by Rnase I digestion. The total RNA was isolated using tri-reagent and used for high-throughput library preparation as described (Ingolia et al. 2012). The libraries were sequenced on the HiSeq2500 High-Output instrument (Illumina) for SR-60.
RNA-seq libraries. Total RNA was isolated from the lysates used for TI-seq and Ribo-seq, using Bio Tri RNA reagent. Total RNA was then cleaned up using Oligo d(T)25 Magnetic Beads (NEB 514195) to isolate mRNA. RNA-seq libraries prepared using a derivation of MARS-seq, produce expression libraries with two replicates of each treatment. ˜25 ng RNA was taken for first Reverse transcription reaction using Illumina barcoded RT1 primer. Resultant barcoded cDNA samples were subsequently pooled according to Ct values of Housekeeping gene (GAPDH) (Quality control 1). Pooled cDNA was treated with Exonuclease I to remove excess primers followed by Second strand synthesis using NEB SSS module enzyme mix. After that, in vitro transcription was performed using NEB T7 RNA Pol mix to generate RNA which was fragmented and ligated to an adaptor consisting RD2 using T4 RNA ligase I (NEB) followed by a second Reverse transcription reaction. The library was amplified using Kappa Hifi ready mix. The RNA libraries were sequenced using a high-throughput 75 bp kit (Illumina FC404-2005) on NEXTseq 500 sequencer. […]

SMILES	ATF4 main ORF translation	number of genes with translational downregulation of CDS (≥1.7 fold) [genes]	number of genes with translational upregulation of CDS [genes]	number of genes with upregulated 5′UTR translation [genes]	translation efficiency of endogenous eIF1
O=C(/C=C/Sc1ccc(C(F)(F)F)cn1)c1ccccc1 [i14G1-10]	upregulated	320	255	806	upregulated
Cn1ccnc1S/C(=C/C=C(C#N)C#N)c1ccc(Cl)cc1 [i14G1-12]	upregulated	874	547	1207	upregulated

Reference: patent US20250090510A1, “eIF4G1-eIF1 INHIBITORS AND USE THEREOF” (YEDA RESEARCH AND DEVELOPMENT CO. LTD., priority 2022, published 2025)
